{"source": "patent US7189798B2", "about": "“Composition containing mixture of dihydroxybutane sulfonates” (Eastman Chemical Company, priority 2001, dated 2007)", "origin": "cited, not measured here", "details": "in vivo"}
{"smiles": "OC[C@H]1O[C@@H]2O[C@H]3[C@H](O)[C@@H](O)[C@@H](O[C@H]4[C@H](O)[C@@H](O)[C@@H](O[C@H]5[C@H](O)[C@@H](O)[C@@H](O[C@H]6[C@H](O)[C@@H](O)[C@@H](O[C@H]7[C@H](O)[C@@H](O)[C@@H](O[C@H]8[C@H](O)[C@@H](O)[C@@H](O[C@H]1[C@H](O)[C@H]2O)O[C@@H]8CO)O[C@@H]7CO)O[C@@H]6CO)O[C@@H]5CO)O[C@@H]4CO)O[C@@H]3CO", "note": "[β-CD, β-cyclodextrin]", "values": [{"measurement": "Renal and liver damage after parenteral administration", "result": "cause renal and liver damage"}]}
